One data set concerns the target human PAI-1 (Homo sapiens, UniProt P05121). Kind of data set: Assay for determining the IC50 of inhibition of PAI-1 (antibody detection of active PAI-1 bound to tPA-coated plate). Format: binding. Conditions: human PAI-1 50 ng/ml, pH 7.5. How it is done: Assay for determining the IC50 of inhibition of PAI-1. This assay is based upon the non-SDS dissociable interaction between tPA and active PAI-1. Assay plates are initially coated with human tPA (10 μg/ml). Test compounds are dissolved in DMSO at 10 mM, then diluted with physiologic buffer (pH 7.5) to a final concentration of 1-50 μM. The test compounds are incubated with human PAI-1 (50 ng/ml) for 15 minutes at room temperature. The tPA-coated plate is washed with a solution of 0.05% Tween 20 and 0.1% BSA, then the plate is blocked with a solution of 3% BSA. An aliquot of the test compound/PAI-1 solution is then added to the tPA-coated plate, incubated at room temperature for 1 hour, and washed. Active PAI-1 bound to the plate is assessed by adding an aliquot of a 1:1000 dilution of the 33B8 monoclonal antibody against human PAI-1, and incubating the plate at room temperature for 1 hour (Molecular Innovations, Royal Oak, Mich.). The plate is again washed, and a solution of goat anti-mouse IgG-alkaline phosphatase conjugate is added at a 1:50,000 dilution in goat serum. The plate is incubated 30 minutes at room temperature, washed, and a solution of alkaline phosphatase substrate is added. The plate is incubated 45 minutes at room temperature, and color development is determined at OD405 nm. The quantitation of active PAI-1 bound to tPA at varying concentrations of the test compound is used to determine the IC50. Results are analyzed using a logarithmic best-fit equation. The assay sensitivity is 5 ng/ml of human PAI-1 as determined from a standard curve ranging from 0-100 ng/ml.

Data set [1] concerns the target T1, recombinant human plasminogen activator inhibitor-1 (PAI-1) (Homo sapiens, UniProt P05121).
T1 construct: purchased Molecular Innovations, Royal Oak, Mich
In words: Screening for PAI-1 inhibition (chromogenic residual tPA activity, Spectrozyme-tPA). Format: biochemical. Conditions: 25 μM test compound; 140 nM PAI-1, 70 nM tPA, pH 6.6. How it is done: Screening for PAI-1 inhibition. Test compounds are dissolved in DMSO at a final concentration of 10 mM, then diluted 100× in physiologic buffer. The inhibitory assay is initiated by the addition of the test compound (1-100 μM final concentration, maximum DMSO concentration of 0.2%) in a pH 6.6 buffer containing 140 nM recombinant human plasminogen activator inhibitor-1 (PAI-1; Molecular Innovations, Royal Oak, Mich.). Following a 1 hour incubation at room temperature, 70 nM of recombinant human tissue plasminogen activator (tPA) is added, and the combination of the test compound, PAI-1 and tPA is incubated for an additional 30 minutes. Following the second incubation, Spectrozyme-tPA (American Diagnostica, Greenwich, Conn.), a chromogenic substrate for tPA, is added and absorbance read at 405 nm at 0 and 60 minutes. Relative PAI-1 inhibition is equal to the residual tPA activity in the presence of the test compounds and PAI-1. Control treatments include the complete inhibition of tPA by PAI-1 at the molar ratio employed (2:1), and the absence of any effect of the test compound on tPA alone.

T1 sequence (P05121 24-402): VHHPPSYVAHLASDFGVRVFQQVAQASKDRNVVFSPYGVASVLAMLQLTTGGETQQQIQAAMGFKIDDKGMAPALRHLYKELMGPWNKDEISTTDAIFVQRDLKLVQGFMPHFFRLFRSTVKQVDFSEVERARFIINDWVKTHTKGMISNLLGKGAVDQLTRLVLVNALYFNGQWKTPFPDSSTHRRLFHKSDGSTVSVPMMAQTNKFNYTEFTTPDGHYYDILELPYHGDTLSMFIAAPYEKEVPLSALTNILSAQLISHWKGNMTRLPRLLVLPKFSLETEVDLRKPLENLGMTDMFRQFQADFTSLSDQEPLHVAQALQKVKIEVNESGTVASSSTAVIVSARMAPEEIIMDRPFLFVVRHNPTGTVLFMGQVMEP
Chain of human PAI-1 (P05121 24-402): as above

Regarding `CC(C)(C)c1ccc(C(=O)Nc2cc(OCCCO/N=C/c3cn(Cc4ccccc4)c4ccccc34)ccc2C(=O)O)cc1` [Compound 1, 4-[3-({[(1E)-(1-benzyl-1H-indol-3-yl)methylidene]amino}oxy)propoxy]-2-[(4-tert-butylbenzoyl)amino]benzoic acid], it took 11.8 µM to reach half-maximal inhibition against human PAI-1 (IC50).

At human PAI-1, `O=C(O)c1ccc(OCCCO/N=C/c2cn(Cc3ccccc3)c3ccccc23)cc1O` [Compound 2, 4-[3-({[(1E)-(1-benzyl-1H-indol-3-yl)methylidene]amino}oxy)propoxy]-2-hydroxybenzoic acid] gave an IC50 of 21.6 µM.

As for `O=C(O)c1ccc(CO/N=C/c2cn(Cc3ccccc3)c3ccccc23)cc1Br` [Compound 3, 4-[({[(1E)-(1-benzyl-1H-indol-3-yl)methylidene]amino}oxy)methyl]-2-bromobenzoic acid], half-maximal inhibition against human PAI-1 (IC50) was put at 29.2 µM.

On to `O=C(O)c1ccc(CO/N=C/c2cc3ccccc3n2Cc2ccccc2)cc1Br` [Compound 4, 4-[({[(1E)-(1-benzyl-1H-indol-2-yl)methylidene]amino}oxy)methyl]-2-bromobenzoic acid], for which the melting point lay within 148 to 149 °C. In addition, the IC50 against human PAI-1 came out at 12.3 µM.

Take `O=C(O)c1ccc(OCCCO/N=C/c2cc3ccccc3n2Cc2ccccc2)cc1O` [Compound 5, 4-[3-({[(1E)-(1-benzyl-1H-indol-2-yl)methylidene]amino}oxy)propoxy]-2-hydroxybenzoic acid]: the melting point is 175 to 176 °C (dec.). Moreover, the midpoint of inhibition against human PAI-1, the IC50, lay at 22.4 µM.

Regarding `O=C(O)c1ccc(OCCCO/N=C/c2cn(Cc3ccccc3)c3ccccc23)c(-c2ccc(C(F)(F)F)cc2)c1` [Compound 6, 6-[3-({[(1E)-(1-benzyl-1H-indol-3-yl)methylidene]amino}oxy)propoxy]-4′-(trifluoromethyl)-1,1′-biphenyl-3-carboxylic acid], the melting point is 193 to 194 °C. Besides, the inhibition at 25 µM in data set [1] came out at 55%.

`Cc1c(/C=N/OCCCOc2ccc(CC(=O)O)cc2)c2ccccc2n1C` [Compound 7, {4-[3-({[(1E)-(1,2-dimethyl-1H-indol-3-yl)methylidene]amino}oxy)propoxy]phenyl}acetic acid]: the inhibition at 25 µM in data set [1] was determined as 54%.

Compound `O=C(O)c1ccc(OCCCO/N=C/c2cc3ccccc3n2Cc2ccccc2)c(-c2ccc(C(F)(F)F)cc2)c1` [Compound 8, 6-[3-({[(1E)-(1-benzyl-1H-indol-2-yl)methylidene]amino}oxy)propoxy]-4′-(trifluoromethyl)-1,1′-biphenyl-3-carboxylic acid] showed a melting point of 196 to 197 °C. In data set [1], the inhibition at 25 µM amounted to 100%.

`Cc1c(/C=N/OCc2ccc(C(=O)O)c(Br)c2)c2ccccc2n1C` [Compound 9, 2-bromo-4-[({[(1E)-(1,2-dimethyl-1H-indol-3-yl)methylidene]amino}oxy)methyl]benzoic acid] had a melting point of 165 to 166 °C. For the same compound, the inhibition at 25 µM in data set [1] is 34%.

Broadly, the IC50 is the midpoint of a concentration-inhibition curve. Read a low IC50 as inhibition by little substance. For orientation: melting point means the temperature of the solid-liquid transition. As usually defined, the inhibition is the change of the read-out against control, counted positive when it falls.

Values taken from patent publication US7342039B2, “Substituted indole oximes” (Wyeth, priority 2003, dated 2008).
